{"source": "ChEMBL document CHEMBL1201862", "about": "“PubChem BioAssay data set” (2004)", "key": {"[1]": {"target": "Mitogen-activated protein kinase 10 (Homo sapiens, UniProt P53779)", "sequence (P53779 whole entry)": "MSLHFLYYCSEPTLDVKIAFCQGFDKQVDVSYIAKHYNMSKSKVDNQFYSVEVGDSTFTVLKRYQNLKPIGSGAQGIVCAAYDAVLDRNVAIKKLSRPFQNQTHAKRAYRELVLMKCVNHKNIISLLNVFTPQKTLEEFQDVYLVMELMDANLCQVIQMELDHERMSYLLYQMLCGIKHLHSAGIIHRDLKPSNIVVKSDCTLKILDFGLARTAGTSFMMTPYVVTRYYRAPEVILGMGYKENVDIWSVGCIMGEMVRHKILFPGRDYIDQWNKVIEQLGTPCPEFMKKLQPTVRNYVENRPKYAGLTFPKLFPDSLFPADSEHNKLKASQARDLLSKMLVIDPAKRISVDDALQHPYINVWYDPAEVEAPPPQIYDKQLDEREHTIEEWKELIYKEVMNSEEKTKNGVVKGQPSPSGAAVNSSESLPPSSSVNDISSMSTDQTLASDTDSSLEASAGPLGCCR", "test": "Dose response biochemical screening assay for inhibitors of c-Jun N-Terminal Kinase 3 (JNK3). [Related pubchem assays: 746 ]"}, "fMet-Leu-Phe receptor": {"target": "T1, fMet-Leu-Phe receptor (Homo sapiens, UniProt P21462)", "T1 sequence (P21462 whole entry)": "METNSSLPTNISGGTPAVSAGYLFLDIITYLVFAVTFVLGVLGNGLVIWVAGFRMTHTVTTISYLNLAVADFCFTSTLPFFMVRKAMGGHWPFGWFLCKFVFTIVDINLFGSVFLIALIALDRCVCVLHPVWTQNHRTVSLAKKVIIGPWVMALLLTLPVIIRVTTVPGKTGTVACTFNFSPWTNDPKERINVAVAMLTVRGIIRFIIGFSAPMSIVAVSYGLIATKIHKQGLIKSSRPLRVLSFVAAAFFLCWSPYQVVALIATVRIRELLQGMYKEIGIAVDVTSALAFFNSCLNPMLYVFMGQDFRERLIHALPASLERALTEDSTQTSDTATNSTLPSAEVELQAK", "test": "formyl peptide receptor binders – dose response (AID 519)", "type": "functional"}, "[2]": {"target": "Peroxisome proliferator-activated receptor gamma/Nuclear receptor corepressor 2 (Homo sapiens, UniProt P37231+Q9Y618)", "test": "Counterscreen for NR2E3 inverse agonists: TR-FRET-based biochemical high throughput dose response assay to identify inverse agonists of the interaction between peroxisome proliferator-activated receptor gamma (PPARg) and nuclear receptor co-repressor 2 (NCOR2).", "type": "functional"}, "[3]": {"target": "Photoreceptor-specific nuclear receptor (Homo sapiens, UniProt Q9Y5X4)", "sequence (Q9Y5X4 whole entry)": "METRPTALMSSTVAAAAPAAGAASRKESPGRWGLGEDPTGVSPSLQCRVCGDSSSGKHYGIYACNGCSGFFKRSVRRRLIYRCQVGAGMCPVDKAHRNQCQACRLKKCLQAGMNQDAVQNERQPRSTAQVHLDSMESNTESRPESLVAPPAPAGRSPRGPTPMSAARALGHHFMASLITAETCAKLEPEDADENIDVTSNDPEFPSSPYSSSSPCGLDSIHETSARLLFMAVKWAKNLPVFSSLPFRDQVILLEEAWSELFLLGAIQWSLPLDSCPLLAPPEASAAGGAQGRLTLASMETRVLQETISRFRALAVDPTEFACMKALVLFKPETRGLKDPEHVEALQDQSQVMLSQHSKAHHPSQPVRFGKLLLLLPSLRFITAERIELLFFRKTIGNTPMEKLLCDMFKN", "test": "ligands suppressing NR2E3 nuclear receptor activity – biochemical, TR-FRET, dose response (AID 463256)", "type": "functional"}, "[4]": {"test": "viability loss in HepG2 hepatoma cells – cell-based, ATP luminescence, dry powder, set 2, cytotoxicity control, dose response (AID 743129)", "type": "functional"}, "[5]": {"test": "viability loss in HEK293T cells – cell-based, ATP luminescence, dry powder, set 3, cytotoxicity control, dose response (AID 743131)", "type": "functional", "conditions": "HEK293"}, "[6]": {"test": "viability loss in A549 lung cancer cells – cell-based, CellTiter-Glo luminescence, dry powder, set 5, cytotoxicity control, dose response (AID 743158)", "type": "functional"}, "[7]": {"target": "Heat shock protein HSP 90-alpha (Homo sapiens, UniProt P07900)", "type": "functional, organism-based"}, "[8]": {"test": "rise of 4N DNA cells, HeLa – IC50, dose response (AID 1117351)", "type": "functional, cell-based"}, "Streptokinase A": {"target": "T2, Streptokinase A (Streptococcus pyogenes serotype M1, UniProt P10520)", "T2 sequence (P10520 whole entry)": "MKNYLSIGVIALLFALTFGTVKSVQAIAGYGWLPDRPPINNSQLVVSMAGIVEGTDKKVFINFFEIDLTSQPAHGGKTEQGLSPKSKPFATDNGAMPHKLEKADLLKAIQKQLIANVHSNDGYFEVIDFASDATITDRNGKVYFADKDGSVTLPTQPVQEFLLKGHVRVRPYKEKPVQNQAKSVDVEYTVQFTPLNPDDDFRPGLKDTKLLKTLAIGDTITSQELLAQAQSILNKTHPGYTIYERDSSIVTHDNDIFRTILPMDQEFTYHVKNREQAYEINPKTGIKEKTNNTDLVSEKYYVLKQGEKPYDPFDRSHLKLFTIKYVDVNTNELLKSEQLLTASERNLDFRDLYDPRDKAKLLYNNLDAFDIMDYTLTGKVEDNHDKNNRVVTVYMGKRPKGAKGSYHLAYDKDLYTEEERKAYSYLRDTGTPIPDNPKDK", "test": "viability-normalized secreted streptokinase activity reduction – plasminogen activation absorbance, OD405, dose response (AID 1914);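 further: secreted streptokinase activity via plasminogen activation per viability signal from cell pellet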", "type": "functional, Streptococcus pyogenes M1 GAS"}, "[9]": {"tested_on": "Streptococcus sp. 'group A'", "test": "Streptococcus pyogenes SK(-)GAS viability under kanamycin – luminescence, BacTiterGlo, confirmation, counter-screen for streptokinase expression inhibitor project, dose response (AID 1900)", "type": "functional, organism-based"}, "[10]": {"test": "rise of 2N DNA cells, HeLa – IC50, dose response (AID 1117349)", "type": "functional, cell-based"}, "Cytochrome P450 2C19": {"target": "Cytochrome P450 2C19 (Homo sapiens, UniProt P33261)", "sequence (P33261 whole entry)": "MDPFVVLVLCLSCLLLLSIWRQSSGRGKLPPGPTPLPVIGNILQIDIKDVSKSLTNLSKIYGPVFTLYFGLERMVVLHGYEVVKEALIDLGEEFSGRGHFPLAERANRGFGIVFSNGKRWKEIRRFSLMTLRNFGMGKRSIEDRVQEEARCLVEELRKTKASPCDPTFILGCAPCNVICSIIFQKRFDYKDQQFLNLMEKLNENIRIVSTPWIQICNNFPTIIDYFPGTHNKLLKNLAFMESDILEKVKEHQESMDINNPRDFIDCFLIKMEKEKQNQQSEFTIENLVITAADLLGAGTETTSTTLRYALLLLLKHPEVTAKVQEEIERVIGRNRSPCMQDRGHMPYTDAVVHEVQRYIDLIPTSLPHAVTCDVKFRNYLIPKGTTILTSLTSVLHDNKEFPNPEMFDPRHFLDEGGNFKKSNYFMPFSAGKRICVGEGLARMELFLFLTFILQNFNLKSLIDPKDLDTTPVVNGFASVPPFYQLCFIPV", "test": "Cytochrome panel assay with activity outcomes. Panel member name: p450-cyp2c19 Compounds with AC50 equal or less than 10 uM are considered active", "type": "functional", "conditions": "read-out: AC50"}, "[11]": {"test": "Potency on glucagon-like peptide 1 release, dose-response in NCI-H716 cell line, half maximal inhibitory concentration (AID 1117344)", "type": "functional, cell-based"}, "[12]": {"target": "T3, Serine/threonine-protein phosphatase (Candida dubliniensis (strain CD36 / CBS 7987 / NCPF 3949 / NRRLY-17841) (Yeast), UniProt B9W6M3)", "T3 sequence (B9W6M3 whole entry)": "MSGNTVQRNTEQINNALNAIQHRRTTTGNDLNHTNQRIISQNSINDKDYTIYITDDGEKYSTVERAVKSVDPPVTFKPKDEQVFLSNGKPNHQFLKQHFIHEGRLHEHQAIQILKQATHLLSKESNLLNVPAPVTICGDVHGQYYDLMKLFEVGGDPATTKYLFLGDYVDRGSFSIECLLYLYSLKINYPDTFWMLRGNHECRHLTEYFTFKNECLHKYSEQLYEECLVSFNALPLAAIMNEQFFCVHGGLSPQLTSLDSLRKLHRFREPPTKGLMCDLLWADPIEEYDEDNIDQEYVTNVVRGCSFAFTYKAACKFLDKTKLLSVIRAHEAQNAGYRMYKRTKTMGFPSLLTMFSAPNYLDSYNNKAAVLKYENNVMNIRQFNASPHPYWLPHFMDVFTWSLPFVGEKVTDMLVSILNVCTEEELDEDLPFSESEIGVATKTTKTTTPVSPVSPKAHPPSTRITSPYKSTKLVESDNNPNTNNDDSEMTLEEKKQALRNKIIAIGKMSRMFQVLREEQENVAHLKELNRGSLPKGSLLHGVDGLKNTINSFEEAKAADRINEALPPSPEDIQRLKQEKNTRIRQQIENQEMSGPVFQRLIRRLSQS", "test": "blockers of CaCl2-induced CDRE-lacZ signaling – S. cerevisiae, luminescence, secondary, dose response (AID 2388);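 further: yeast reporter cells carrying a calcineurin-responsive lacZ construct stimulated with calcium chloride; luminescent beta-galactosidase reporter signal in whole cells rather than isolated phosphatase activity; potency for inhibition where a drop in reporter signal means calcineurin blockade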", "type": "functional, cell-based"}, "[13]": {"test": "glucagon-like peptide-1 release potency in STC-1, concentration-response, half-maximal inhibitory concentration in the STC-1 line (AID 1117345)", "type": "functional, cell-based"}, "Streptococcus": {"tested_on": "Streptococcus", "test": "GAS UMAA2166 growth inhibition – luminescence, BacTiterGlo, counter-screen for streptokinase expression inhibitor project, dose response (AID 1915)", "type": "functional, organism-based"}, "[14]": {"target": "Beta-2 adrenergic receptor (Homo sapiens, UniProt P07550)", "sequence (P07550 whole entry)": "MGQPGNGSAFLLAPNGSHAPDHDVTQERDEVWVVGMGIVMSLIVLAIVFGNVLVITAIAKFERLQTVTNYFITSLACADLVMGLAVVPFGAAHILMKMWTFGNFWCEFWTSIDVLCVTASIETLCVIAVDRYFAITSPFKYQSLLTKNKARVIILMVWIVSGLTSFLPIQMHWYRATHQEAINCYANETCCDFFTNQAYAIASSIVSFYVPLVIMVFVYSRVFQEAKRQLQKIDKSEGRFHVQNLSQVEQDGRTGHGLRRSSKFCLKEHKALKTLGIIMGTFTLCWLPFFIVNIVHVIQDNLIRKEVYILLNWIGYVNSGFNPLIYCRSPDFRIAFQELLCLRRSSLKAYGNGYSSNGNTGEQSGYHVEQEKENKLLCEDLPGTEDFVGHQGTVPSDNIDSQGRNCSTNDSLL", "test": "ADRB2 activation measured by internalization – cell-based, FAP fluorogen, flow cytometry, cherry pick 1, dose response (AID 588763)", "type": "functional"}, "[15]": {"test": "fluconazole-exposed Candida albicans growth modulators – fluorescence, retest, confirmation (AID 2467)", "type": "functional, cell-based"}, "[16]": {"test": "NIH-3T3 fibroblast cytotoxicity, dose response, cytotoxicity control, cell-based, fluorescence, Alamar Blue, secondary assay (AID 2327);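 further: NIH-3T3 mouse fibroblasts cultured with fluconazole at 8 µg/mL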", "type": "functional"}, "Cytochrome P450 2C9": {"target": "Cytochrome P450 2C9 (Homo sapiens, UniProt P11712)", "sequence (P11712 whole entry)": "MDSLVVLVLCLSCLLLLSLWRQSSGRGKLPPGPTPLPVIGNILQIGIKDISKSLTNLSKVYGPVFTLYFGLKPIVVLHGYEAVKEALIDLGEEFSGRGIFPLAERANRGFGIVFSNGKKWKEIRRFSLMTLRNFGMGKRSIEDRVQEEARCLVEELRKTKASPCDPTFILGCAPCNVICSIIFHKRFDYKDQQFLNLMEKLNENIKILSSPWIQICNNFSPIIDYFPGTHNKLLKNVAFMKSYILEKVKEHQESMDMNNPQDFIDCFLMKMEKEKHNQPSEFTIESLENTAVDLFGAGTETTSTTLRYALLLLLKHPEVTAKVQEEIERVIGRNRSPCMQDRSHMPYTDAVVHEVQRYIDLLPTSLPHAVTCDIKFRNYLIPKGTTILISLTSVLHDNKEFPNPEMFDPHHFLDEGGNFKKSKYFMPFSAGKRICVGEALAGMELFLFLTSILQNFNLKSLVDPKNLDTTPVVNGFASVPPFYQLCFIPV"}, "[17]": {"target": "ATP-dependent molecular chaperone HSP82 (Candida albicans (strain WO-1) (Yeast), UniProt C4YTQ8)", "sequence (C4YTQ8 whole entry)": "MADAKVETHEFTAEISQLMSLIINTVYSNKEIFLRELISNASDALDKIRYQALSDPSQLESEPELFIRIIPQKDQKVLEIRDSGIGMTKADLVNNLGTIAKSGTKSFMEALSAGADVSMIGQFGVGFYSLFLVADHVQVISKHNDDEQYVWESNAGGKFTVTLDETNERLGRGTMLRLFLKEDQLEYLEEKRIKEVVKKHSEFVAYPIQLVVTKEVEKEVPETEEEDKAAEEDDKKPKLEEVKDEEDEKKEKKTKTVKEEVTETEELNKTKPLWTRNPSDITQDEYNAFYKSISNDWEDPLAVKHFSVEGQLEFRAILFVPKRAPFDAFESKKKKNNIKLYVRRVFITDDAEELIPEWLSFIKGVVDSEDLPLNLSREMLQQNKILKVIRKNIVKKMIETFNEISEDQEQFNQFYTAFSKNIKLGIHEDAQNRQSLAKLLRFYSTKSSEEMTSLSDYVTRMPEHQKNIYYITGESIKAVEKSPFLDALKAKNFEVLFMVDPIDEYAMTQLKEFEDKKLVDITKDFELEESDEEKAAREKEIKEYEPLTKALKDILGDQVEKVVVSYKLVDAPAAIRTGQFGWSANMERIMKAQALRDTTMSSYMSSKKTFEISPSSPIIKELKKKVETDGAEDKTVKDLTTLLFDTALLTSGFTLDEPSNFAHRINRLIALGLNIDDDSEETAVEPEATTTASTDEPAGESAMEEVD", "test": "steroid-induced GRE reporter decrease in yeast – S. cerevisiae, luminescence, Hsp90 inhibitor project, dose response (AID 2400);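 further: beta-galactosidase luminescence from glucocorticoid response element reporter as proxy for Hsp90 function; inhibitor potency where signal loss means Hsp90 inhibition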", "type": "functional, cell-based"}, "Cytochrome P450 2D6": {"target": "Cytochrome P450 2D6 (Homo sapiens, UniProt P10635)", "sequence (P10635 whole entry)": "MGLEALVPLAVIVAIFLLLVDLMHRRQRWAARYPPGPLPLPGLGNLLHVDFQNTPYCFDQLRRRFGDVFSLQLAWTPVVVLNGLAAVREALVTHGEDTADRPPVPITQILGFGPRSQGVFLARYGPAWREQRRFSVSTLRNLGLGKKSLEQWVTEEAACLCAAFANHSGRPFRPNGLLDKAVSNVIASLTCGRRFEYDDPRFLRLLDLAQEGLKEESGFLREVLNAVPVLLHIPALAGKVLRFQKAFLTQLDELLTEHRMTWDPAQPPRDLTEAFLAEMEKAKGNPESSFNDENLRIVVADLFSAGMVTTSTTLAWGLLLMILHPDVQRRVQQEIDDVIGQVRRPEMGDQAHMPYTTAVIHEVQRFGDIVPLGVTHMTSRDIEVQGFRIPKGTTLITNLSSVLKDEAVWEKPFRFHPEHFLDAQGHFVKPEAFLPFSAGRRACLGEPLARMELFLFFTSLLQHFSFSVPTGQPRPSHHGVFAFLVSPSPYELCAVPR"}}, "note": "Where “and” joins values, the source holds several entries; their conditions need not be identical. Identical values can stand only once. Calls of active or inactive are those of the source.", "data": [{"smiles": "CCCOc1ccc(C2C(C(=O)c3ccc(C)o3)=C(O)C(=O)N2CCCn2ccnc2)cc1", "note": "(stereo not drawn)", "values": [{"measurement": "IC50", "setting": "[1]", "result": "19.7 µM (not active)"}, {"measurement": "Ki", "setting": "fMet-Leu-Phe receptor", "result": "13.8 µM (active)"}]}, {"smiles": "COc1cc2ccccc2cc1C(=O)Nc1ccc2oc(=O)ccc2c1", "values": [{"measurement": "IC50", "setting": "[2]", "result": "2.86 µM (active)"}, {"measurement": "IC50", "setting": "[3]", "result": "2.28 µM (active)"}]}, {"smiles": "CCOC(=O)c1c(-c2ccc(-c3ccccc3)cc2)csc1NC(=O)CNCCN(C)C", "values": [{"measurement": "AC50", "setting": "[4]", "result": "16.5 µM (active)"}, {"measurement": "AC50", "setting": "[5]", "result": "13.3 µM (active)"}, {"measurement": "AC50", "setting": "[6]", "result": "17.1 µM (active)"}]}, {"smiles": "Clc1ccccc1C(c1ccccc1)(c1ccccc1)n1ccnc1", "note": "[CLOTRIMAZOLE]", "values": [{"measurement": "AC50", "setting": "[7]", "result": "< 0.195 µM (active)"}, {"measurement": "IC50", "setting": "[8]", "result": "> 10 µM (inactive)"}, {"measurement": "EC50", "setting": "Streptokinase A", "result": "> 150 µM (not active)"}, {"measurement": "EC50", "setting": "[9]", "result": "4.3 µM (active)"}, {"measurement": "IC50", "setting": "[10]", "result": "> 10 µM (inactive)"}, {"measurement": "AC50", "setting": "Cytochrome P450 2C19", "result": "10 µM (active) and 7.94 µM (inconclusive)"}, {"measurement": "IC50", "setting": "[11]", "result": "20.2 µM (inactive)"}, {"measurement": "EC50", "setting": "[12]", "result": "> 180 µM (inactive)"}, {"measurement": "IC50", "setting": "[13]", "result": "> 40 µM (inactive)"}, {"measurement": "EC50", "setting": "Streptococcus", "result": "7.15 µM (active)"}, {"measurement": "EC50", "setting": "[14]", "result": "4.69 µM (active)"}, {"measurement": "EC50", "setting": "[15]", "result": "0.628 µM (active)"}, {"measurement": "EC50", "setting": "[16]", "result": "11.6 µM (active)"}, {"measurement": "AC50", "setting": "Cytochrome P450 2C9", "result": "1 µM (active) and 316 nM (active)"}, {"measurement": "EC50", "setting": "[17]", "result": "> 150 µM (inactive)"}, {"measurement": "AC50", "setting": "Cytochrome P450 2D6", "result": "10 µM (active) and 39.8 µM (inconclusive)"}]}]}
